Laboratory results: US9164084B2, “Methods for determining aggressiveness of a cancer and treatment thereof” (Purdue Research Foundation, priority 2012, dated 2015)
Entries after “also recorded” stand apart in the source; their conditions may differ.

Columns and labels:
[1] = system: PC-3 cells; test: Cell growth / viable cell number of PC-3 cells; type: cell-based, human
Description: (§1) Because cholesteryl ester accumulation was found in PCa but not in normal prostate, how cell viability could be affected by regulating cholesteryl ester levels with the ACAT inhibitor Avasimibe was evaluated. […] The inhibitory effect of Avasimibe on the growth of PC-3 and LNCaP-HP cells was considerably greater than that in cholesteryl ester poor cancer cells including LNCaP-LP, DU145, and C4-2.

[2] = system: LNCaP-HP cells; test: Spectroscopic (SRL) imaging and Raman spectral analysis of lipid droplets in LNCaP-HP cells; type: cell-based, human; conditions: for cholesteryl ester accumulation: ACAT inhibitor treatment
Description: The LNCaP-HP cells were treated with an ACAT inhibitor, avasimibe (structure shown in FIG. 13, Panel D), at 10 μM for 2 days.
(§2) A broad spectrum of human prostate epithelial cells has been examined. […] Loss of the tumor suppressor PTEN has been widely observed in both localized and metastatic prostate cancer and correlated with high Gleason grade. With loss of PTEN, PI3K signaling is hyper-activated, which, in turn, leads to AKT activation. […] AKT mediates the phosphorylation and activation of mTOR complex 1 (mTORC1) which plays critical roles in the regulation of protein and lipid biosynthesis. To determine whether the PI3K/AKT/mTOR pathway regulates cholesteryl ester accumulation, both types of cholesteryl ester rich cell lines, PC-3 and high passage LNCaP (LNCaP-HP), were treated with LY294002 (PI3K inhibitor), MK2206 (AKT inhibitor), and Rapamycin (mTOR inhibitor), respectively.
(§3) It is well known that LDL enters a cell via LDL receptor (LDLr) and traffics to the late endosome and lysosome where it is hydrolyzed to free fatty acids and free cholesterol. The excess free cholesterol together with the fatty acyl CoA substrate is then converted to cholesteryl ester by Acyl coenzyme A: cholesterol acyltransferase (ACAT) and stored in lipid droplets. Thus, cells were separately treated with Avasimibe and Sandoz 58-035, two different ACAT inhibitors. […] The significant reduction of cholesteryl ester accumulation upon Avasimibe treatment was further confirmed by an independent biochemical assay of cell lysates.

[3] = system: PC-3 cells; test: Spectroscopic imaging and Raman spectral analysis of lipid droplets in PC-3 cells; type: cell-based, human; conditions: for cholesteryl ester accumulation: ACAT inhibitor treatment
Text: as §2
(§4) Because cholesterol can be either de novo synthesized via the mevalonate pathway or taken up from exogenous lipoproteins, the source of cholesterol used for cholesteryl ester accumulation was investigated. PC-3 cell were first treated with Simvastatin, an inhibitor of 3-hydroxy-3-methylglutaryl coenzyme A HMG-CoA reductase, the rate-limiting enzyme of the mevalonate pathway. […] In contrast, after treating cells with lipoprotein-deficient serum (LPDS), lipid droplets nearly disappeared in cholesteryl ester rich PC-3 and LNCaP-HP cells (FIG. 29, Panel A), but remained the same amount in cholesteryl ester poor cells including LNCaP-LP, DU145, and C4-2. Re-addition of low-density lipoprotein (LDL) into the LPDS medium restored lipid droplets and cholesteryl ester in both PC-3 and LNCaP-HP cells (FIG. 29, Panel B).
as §3

[4] = system: LNCaP-HP cells; test: Cell growth / viable cell number of LNCaP-HP cells; type: cell-based, human; conditions: for proliferation (growth) rate, MTT assay: treatment started at day 1 (FIG. 14)
Description: To study the impact of cholesteryl ester storage on tumor growth, the growth rate of LNCaP-HP and LNCaP-LP cells were measured using MTT assay (a colorimetric assay for measuring number of cells present, where the color is proportional to the number of cells).
as §1

[5] = system: PC-3 cells; test: Flow cytometry analysis of cell cycle and apoptosis in PC-3 cells; type: cell-based, human
[6] = system: normal prostate RWPE1 cell; test: Toxic effect on normal prostate RWPE1 cell; type: cell-based; conditions: at the same doses
[7] = system: PC-3 xenografts; test: Mice bearing PC-3 xenografts treated with Avasimibe; type: in vivo
Description: To test the potential of using Avasimibe to treat advanced PCa in vivo, Avasimibe (15 mg/kg body weight by i.p. injection) was administered to the mice bearing PC-3 xenografts. Daily treatment of mice with the Avasimibe inhibited the growth of PC-3 tumors by ˜2 folds (FIG. 33), and induced ˜40% reduction in tumor weight by the end of 30-day treatment (FIG. 34).

[8] = system: PC-3 cells; test: Cellular uptake of DiI-labeled LDL in PC-3 cells; type: cell-based, human; conditions: PC-3, 2-day treatment
Text: as §4
Finally, it was investigated whether Avasimibe-mediated suppression of tumor growth is associated with the regulation of cholesterol metabolism machinery. It was hypothesized that abrogating ACAT activity would up-regulate cellular level of free cholesterol and then down-regulate SREBP and LDLr in PCa cells (FIG. 40). […]

[9] = system: LNCaP-HP cells; test: Cellular uptake of DiI-labeled LDL in LNCaP-HP cells; type: cell-based, human; conditions: 2-day treatment
Text: (§5) Finally, it was investigated whether Avasimibe-mediated suppression of tumor growth is associated with the regulation of cholesterol metabolism machinery. It was hypothesized that abrogating ACAT activity would up-regulate cellular level of free cholesterol and then down-regulate SREBP and LDLr in PCa cells (FIG. 40). […] To provide an explanation for enhanced uptake of LDL and then storage of excess cholesterol in the form of cholesteryl ester in aggressive prostate cancer, it was noticed that LDL is the primary carrier of essential polyunsaturated fatty acid including arachidonic acid (AA). Inside cells, AA is converted to a wide range of eicosanoids, which have been implicated in various pathological processes such as inflammation and cancer.

[10] = system: PC-3 cells; test: Immunoblotting of SREBP and LDLr in PC-3 cells; type: cell-based, human
Text: It has been shown that mTOR plays a key role in regulating the function of sterol regulatory element-binding proteins (SREBPs) which control lipid and cholesterol homeostasis. Specifically, when cellular sterol levels decrease, SREBP-1a and/or -2 precursors are cleaved to activate the expression of genes involved in de novo cholesterol synthesis and LDL-cholesterol uptake. […] Similar results for on LNCaP-HP cells were obtained.
as §5

[11] = system: LNCaP-HP cells; test: Immunoblotting of SREBP and LDLr in LNCaP-HP cells; type: cell-based, human
Text: as §5

[12] = system: PC-3 cells; test: Standard biochemical assay of CE and free cholesterol in PC-3; type: cell-based, human; conditions: PC-3, 2-day treatment
Text: as §3, §5

[13] = system: PC-3 cells; test: LC-MS of arachidonic acid (AA) in PC-3 cell lysates; type: cell-based, human
Text: as §5

[14] = system: BxPC3 cells; test: CRS microscopy of lipid droplets in BxPC3 cells; type: cell-based; conditions: 7.5 μM for 24 h (FIG. 48)
Text: (§6) Coherent Raman scattering (CRS) microscopy is a label-free imaging technique that is highly sensitive to C—H bond abundant structures such as membranes and lipid droplets. By matching the C—H bond stretching vibration mode at 2850 cm^−1, lipid distribution was imaged in human pancreatic cancer (n=10) and normal tissues (n=10) provided by IU School of Medicine. A remarkable amount of lipid droplets in all pancreatic cancer tissues was observed (FIG. 47, Panel B). […] Furthermore, by coupling a spectrometer to the CRS microscope, the devices was able to dissect the composition of individual lipid droplets through confocal Raman spectral analysis. […] Using emulsified mixtures of cholesteryl oleate and glyceryl trioleate (Sigma), it was verified that height ratio of the Raman peak at 702 cm^−1 the Raman peak at 1442 cm^−1 (CH^2 bending vibration mode) is linearly proportional to molar percentage of cholesteryl ester (FIG. 47, Panel D) out of the total neutral lipids. Based on this calibration curve, it was concluded that over 80% of neutral lipids in human pancreatic cancer tissues are cholesteryl ester. In order to understand how lipids accumulate in pancreatic cancer, several in vitro studies using two common pancreatic cancer cell lines, BxPC3 and PANC-1 were performed. […]

[15] = system: PANC-1 cells; test: CRS microscopy and Raman spectroscopy of cholesteryl ester in PANC-1 cells; type: cell-based; conditions: 7.5 μM for 24 h (FIG. 48)
Text: as §6

[16] = system: pancreatic cancer cells (BxPC3 and PANC-1); test: Western blot of pancreatic cancer cells before and after avasimibe treatment; type: cell-based; conditions: pancreatic cancer cells (FIG. 49)
Description: In order to understand how lipids accumulate in pancreatic cancer, several in vitro studies using two common pancreatic cancer cell lines, BxPC3 and PANC-1 were performed. Since ACAT is the enzyme responsible for the conversion from cholesterol to cholesteryl ester the effects of inhibiting ACAT-1, the universally expressed isoform, on lipid metabolism in pancreatic cancer cells were first examined. […] To explore the molecular mechanism, western blot of the cells before and after avasimibe treatment were performed.

[17] = system: BxPC3 cells; test: Cell viability (ATP level) of BxPC3 cells; type: cell-based; conditions: 7.5 μM for various periods
Description: (§7) The cells were treated with […] (control) or 7.5 μM avasimibe for various periods. Then cells were lysed and ATP level were quantified to determine the number of viable cells.
(§8) As the ACAT-1 inhibitor, avasimibe, effectively removed lipid droplet or cholesteryl ester accumulation in pancreatic cancer cells, the use of avasimibe as a chemotherapy agent for pancreatic cancer was explored. The effects of avasimibe on cell viability in BxPC3 and PANC-1 cells were examined.

[18] = system: PANC-1 cells; test: Cell viability (ATP level) of PANC-1 cells; type: cell-based; conditions: 7.5 μM for various periods
Description: as §7, §8

## CCCCC/C=C\C/C=C\C/C=C\C/C=C\CCCC(=O)O [AA, arachidonic acid]
[1]; added LDL or AA (FIG. 46)
  growth of PC-3 cells: promoted the growth of PC-3 cells in a dose-dependent manner

## NC1(c2ccc(-c3nc4ccn5c(=O)[nH]nc5c4cc3-c3ccccc3)cc2)CCC1 [MK2206]
[2]
  autofluorescent granules indicative of autophagy: induced massive accumulation of autofluorescent granules
  lipid droplet amount: radically removed lipid droplets
[3]
  autofluorescent granules indicative of autophagy: induced massive accumulation of autofluorescent granules
  lipid droplet amount: radically removed lipid droplets

## CCCCCCCCCC[Si](C)(C)CCC(=O)NC(Cc1ccc(C)cc1)c1ccccc1 (centres unmarked) [Sandoz 58-035]
[2]
  lipid droplet amount: remaining unchanged
  cholesteryl ester accumulation: effectively suppressed cholesteryl ester accumulation
[3]
  lipid droplet amount: remaining unchanged
  cholesteryl ester accumulation: effectively suppressed cholesteryl ester accumulation

## CC(C)c1cc(C(C)C)c(CC(=O)NS(=O)(=O)Oc2c(C(C)C)cccc2C(C)C)c(C(C)C)c1 [Avasimibe, avasimibe]
[2]
  lipid droplet amount: remaining unchanged
  cholesteryl ester accumulation: effectively suppressed cholesteryl ester accumulation
[2]; 10 μM for 2 days
  accumulation of cholesteryl ester in lipid droplets (702 cm^-1 Raman peak): completely blocked the accumulation of CHOLESTERYL ESTER
  cell morphology: reversed the cell morphology to that of LNCaP-LP cells
[3]
  lipid droplet amount: remaining unchanged
  cholesteryl ester accumulation: effectively suppressed cholesteryl ester accumulation
[4]; Homo sapiens, 72 h, LNCaP-HP cell, 3 days
  IC50: 9.64 µM
[4]; Homo sapiens, 72 h, LNCaP-HP cells, 3 days of 7.5 μM, read-out: reduction in viable cell number
  cytotoxicity at 7.5 µM: ~55%
[4]; LNCaP-HP cells (FIG. 31)
  proliferation (viable cell number): significantly hampered the proliferation
[4]; LNCaP-HP cells
  proliferation (growth) rate, MTT assay: significantly slowed down the proliferate rate
[4]; LNCaP-HP cells, listed as avasimide
  proliferation (growth) rate, MTT assay: significantly reduced growth rate
[1]; Homo sapiens, 72 h, PC-3 cell, 3 days
  IC50: 7.32 µM
[1]; Homo sapiens, 72 h, PC-3 cells, 3 days of 7.5 μM, read-out: reduction in viable cell number
  cytotoxicity at 7.5 µM: ~48%
[1]; PC-3 cells (FIG. 31)
  proliferation (viable cell number): significantly hampered the proliferation
[5]
  G2/M phase population compared to control group: 2 times smaller
  sub G0/G1 population compared to control group: ~3 times larger
[6]
  toxic effect on normal prostate cell: no toxic effect
[7]; PC-3 tumor
  increase of apoptosis (TUNEL IHC): ~2 folds
  reduction of proliferation (Ki67 IHC): ~70%
[7]; compared to vehicle-treated
  cholesteryl ester content in PC-3 tumor (spectroscopic imaging of extracted tissues): significantly dropped
[7]; mice (FIG. 33)
  tumor size compared to controls: decreased tumor size
[7]; mice (FIG. 36)
  body weight over the course of treatment: remained steady
[7]; mice receiving Avasimibe
  pathological review of heart, kidney, liver, lung, and spleen: no signs of toxicity
[7]; mice, 15 mg/kg i.p. daily
  appearance of harvested tumors: less bloody in appearance
[7]; mice, 15 mg/kg i.p. daily, end of 30-day treatment
  reduction in tumor weight: ~40%
[7]; mice, 15 mg/kg i.p., daily treatment
  inhibition of growth of PC-3 tumors: ~2 folds
[7]; mouse, in vivo, ip, 15 mg/kg
  general toxicity (animal behavior, body weight): did not cause general toxicity
[8]
  uptake of DiI-labeled LDL: drastically inhibited LDL uptake
[9]
  uptake of DiI-labeled LDL: drastically inhibited LDL uptake
[10]
  LDLr level (immunoblot): down-regulation
  SREBP-1 level (immunoblot): down-regulation
[11]
  LDLr level (immunoblot): down-regulation
  SREBP-2 level (immunoblot): down-regulation
[12]
  level of CE: reduced the level of CE
  level of free cholesterol: slightly increased the level of free cholesterol
[13]
  level of AA (arachidonic acid): significantly reduced the level of AA
[14]
  lipid droplet amount: reduced lipid droplet amount
[14]; listed as avasimibe
  lipid droplet amount: reduced the lipid droplet amount; also recorded: significantly reduced the amount of lipid droplets
[15]
  cholesteryl ester accumulation: blocked cholesteryl ester accumulation
[15]; listed as avasimibe
  cholesteryl ester accumulation: eliminated cholesteryl ester; also recorded: blocked cholesteryl ester accumulation
[16]
  HMGCoA reductase level (western blot): significantly reduced the level of HMGCoA reductase
[16]; listed as avasimibe
  HMGCoA reductase level (western blot): reduced the expression of HMGCoA reductase
  LDL receptor level (western blot): not affected
[17]
  cell viability (ATP level): significantly reduced cell viability
[17]; listed as avasimibe
  cell viability (ATP level): significantly reduced the viability; also recorded: dramatically reduced the cell viability
[18]
  cell viability (ATP level): significantly reduced cell viability
[18]; listed as avasimibe
  cell viability (ATP level): significantly reduced the viability; also recorded: dramatically reduced the cell viability
